Read-outs that look alike come from different tables or passages of the source. Starred links: 1 amine or outer side, 2 acyl side, 3 side chain; linkers in the order of their positions; H or OH if unused. Positions of bridges follow the written chain, without caps; N, C: chain ends. Non-standard residues stand in square brackets, D forms with d. Residues, ends and D or L forms follow the SMILES beside them. No end group written: not given here. ξ: configuration not given here. *: point of attachment. Leu(4,5-dehydro) = C=C(C)C[C@H](N)C(=O)O; Oic = O=C(O)[C@@H]1C[C@@H]2CCCC[C@@H]2N1; X4 = C=C(C)C[C@@H](N[*:1])C(=O)[*:2]; dVal(3-OH) = CC(C)(O)[C@@H](N)C(=O)O; Val(3-OH) = CC(C)(O)[C@H](N)C(=O)O; cisHyp = O=C(O)[C@@H]1C[C@H](O)CN1; tBuAla = CC(C)(C)C[C@H](N)C(=O)O; Myristoyl = CCCCCCCCCCCCCC(=O)*; R5 = C=CCCC[C@@](C)(N)C(=O)O; X1 = O=C(CC(O)CN[*:1])[*:2]; 4Amb = NCc1ccc(C(=O)O)cc1; ξP = O=C(O)C1CCCN1
Columns and labels:
[1] = Lipophilicity of peptides, logP(oct/wat); assay type: physicochemical
Protocol: (§1) The solubilities of the synthesized compounds were determined experimentally (Supplementary Table 2). Most compounds were highly soluble at a 1 mM concentration; however, some compounds tended to form aggregates. These compounds were excluded from further studies. In addition, we experimentally determined the lipophilicity of each compound, logP(oct/wat)=log(soluteoct/solutewat ), which is the partition coefficient of a compound between aqueous (water) and lipophilic (octanol) phases (Supplementary Table 2).
Lipophilicity of peptides. Two separate solutions were obtained: an aqueous phosphate buffer with saturated n-octanol, and an n-octanol solution with saturated phosphate buffer. Peptides were then dissolved and diluted in the phosphate buffer. Different partitions were then made with different n-octanol to water ratio before shaking for an hour at room temperature. The aqueous phase and n-octanol were allowed to equilibrate, and each phase was extracted and analyzed for peptide concentrations. The ratio of peptide concentration in n-octanol to that in water is expressed as log(P).

[2] = system: human primary microvascular lung endothelial cells (HLMVECs); test: Peptide uptake in endothelial cells; assay type: cell-based
Protocol: We next analyzed the cell-penetrating properties of the selected compounds, hereafter referred to as vascular therapeutics (VT). The rate of uptake of 5’6-FAM (fluorescein)-labeled compounds by human primary microvascular lung endothelial cells (HLMVECs) was determined via confocal fluorescence live-cell imaging. FAM-labeled Myr-EBIN[13] and fluorescein alone were used as positive and negative controls, respectively. The t½ uptake and maximal uptake were determined from changes in the integrated fluorescence intensity over a 30 min period (Fig. 2a and Supplementary Fig. 1a). […] Like Myr-EBIN, compounds VT-107, -108 and -109 presented the highest uptake rates of 92.5 ± 5.0%, 82.5 ± 2.8% and 94.7 ± 4.9%, respectively, whereas the linear compound VT-101 was taken up less efficiently, with an average uptake of 58.4 ± 2.7% (Fig. 2a). […] The t½ uptake, however, varied between the tested compounds (Fig. 2b). The stapled compounds presented the shortest t½ uptake, whereas the linear compounds presented the longest t½ (Fig. 2b).
Peptide uptake in endothelial cells. The rate of peptide uptake by primary human microvascular endothelial cells was measured using 5’6FAM (fluorescein)-labeled peptides and confocal fluorescence live-cell imaging, with fluorescein alone used as a negative control. Changes in intracellular fluorescence for each peptide were monitored over time, and saponin, a detergent, was added at the end of the experiment to induce full uptake of the tested peptides by endothelial cells. The fluorescence intensity inside the cells was tracked over time, and the half-time uptake (t1/2) and maximum uptake were calculated.

[3] = Aggregation / solubility at 1 mM; assay type: physicochemical; details: summary calls it solubility at 1mM
Protocol: as §1

[4] = biological target: EB3 interactions with IP3R3-GFP (Homo sapiens, UniProt Q9UPY8); test: Competitive binding: inhibition of EB3 interaction with IP3R3-GFP in vitro; assay type: biochemical; details: for inhibition at 0.25 µM: 250 nM
EB3 interactions with IP3R3-GFP, sequence (Q9UPY8 whole entry): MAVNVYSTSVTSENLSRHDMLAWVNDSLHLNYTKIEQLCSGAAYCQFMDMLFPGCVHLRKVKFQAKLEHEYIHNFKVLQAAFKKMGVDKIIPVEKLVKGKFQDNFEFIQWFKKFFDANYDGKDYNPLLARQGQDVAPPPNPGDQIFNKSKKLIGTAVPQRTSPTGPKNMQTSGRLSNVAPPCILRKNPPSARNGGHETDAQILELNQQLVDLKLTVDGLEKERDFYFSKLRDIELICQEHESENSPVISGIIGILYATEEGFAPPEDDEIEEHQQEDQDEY
Description: We tested the efficacy of twenty-three compounds in inhibiting EB3 interactions with IP3R3-GFP via an in vitro approach developed by us[12],[13]. […] Guided by NMR studies, we predicted the binding pose of 109 to EB3 via AutoDock Vina[13],[24],[25].

[5] = Stability of selected EB3 inhibitors in human blood plasma; assay type: in vitro ADME; details: human, plasma
Protocol: Supplementary Table 3. Stability of selected EB3 inhibitors in human blood plasma. The indicated inhibitors were incubated with human plasma at 37 °C and samples were taken at the indicated time points. Plasma proteins were precipitated with ice-cold perchloric acid (60%); the concentration of compounds was measured in supernatant using a liquid chromatography-tandem mass spectrometry (LC-MS/MS). See also Figures 1 and 2.

Molecule	logD [1]	Aggregation at 1mM [3]	inhibition at 0.25 µM [4] [%]	other results
FTEIPTI [compound 000, (S)-4-((2S,3R)-2-((S)-2-amino-3-phenylpropanamido)-3-hydroxybutanamido)-5-(((2S,3S)-1-((S)-2-(((2S,3R)-1-(((1S,2S)-1-carboxy-2-methylbutyl)amino)-3-hydroxy-1-oxobutan-2-yl)carbamoyl)pyrrolidin-1-yl)-3-methyl-1-oxopentan-2-yl)amino)-5-oxopentanoic acid, reference compound]	–	–	–	Log P (Octanol/Water) [1]: 0.75; half-time uptake t1/2 [2]: 2.50 ± 0.06 min; Competitive Binding at 250nM (% Inhibition) ([4]; 0.25 µM): no inhibition; Competitive Binding at 250nM (% Inhibition) ([4]; listed as EBIN, 0.25 µM): did not
C=C(C)C[C@H](NC(=O)[C@H](CCC(=O)O)NC(=O)[C@@H](NC(=O)[C@@H](N)Cc1ccccc1)[C@@H](C)O)C(=O)N1CCC[C@H]1C(=O)N[C@H](C(=O)N[C@H](C(=O)O)[C@@H](C)CC)[C@@H](C)O [compound 019, (S)-4-((2S,3R)-2-((S)-2-amino-3-phenylpropanamido)-3-hydroxybutanamido)-5-(((S)-1-((S)-2-(((2S,3R)-1-(((1S,2S)-1-carboxy-2-methylbutyl)amino)-3-hydroxy-1-oxobutan-2-yl)carbamoyl)pyrrolidin-1-yl)-4-methyl-1-oxopent-4-en-2-yl)amino)-5-oxopentanoic acid] (H-FTE[Leu(4,5-dehydro)]PTI-OH)	-1	weak signal	51	–
CC[C@H](C)[C@H](NC(=O)[C@@H](NC(=O)[C@@H]1C[C@H](O)CN1C(=O)[C@H](CC(C)(C)C)NC(=O)[C@H](CCC(=O)O)NC(=O)[C@H](NC(=O)[C@@H](N)Cc1ccccc1)C(C)(C)O)[C@@H](C)O)C(=O)O [compound 038, (S)-4-((R)-2-((S)-2-amino-3-phenylpropanamido)-3-hydroxy-3-methylbutanamido)-5-(((S)-1-((2S,4S)-2-(((2S,3R)-1-(((1S,2S)-1-carboxy-2-methylbutyl)amino)-3-hydroxy-1-oxobutan-2-yl)carbamoyl)-4-hydroxypyrrolidin-1-yl)-4,4-dimethyl-1-oxopentan-2-yl)amino)-5-oxopentanoic acid] (H-F[dVal(3-OH)]E[tBuAla][cisHyp]TI-OH)	-0.19	0.35	36	–
CCCCCCCCCCCCCC(=O)N[C@@H](Cc1ccccc1)C(=O)N[C@H](C(=O)N[C@@H](CCC(=O)O)C(=O)N[C@H](C(=O)N1CCC[C@H]1C(=O)N[C@H](C(=O)N[C@H](C(=O)O)[C@@H](C)CC)[C@@H](C)O)[C@@H](C)CC)[C@@H](C)O [Myr-EBIN, reference compound] (Myristoyl-FTEIPTI-OH)	–	–	–	remaining at 1.5 h [5]: 105%; remaining at 20 h [5]: 53%
CC[C@H](C)[C@H](NC(=O)[C@@H](NC(=O)[C@@H]1CCCN1C(=O)[C@@H](NC(=O)c1ccc(CNC(=O)[C@H](NC(=O)[C@@H](N)Cc2ccccc2)C(C)(C)O)cc1)[C@@H](C)CC)[C@@H](C)O)C(=O)O [compound 021, (4-(((R)-2-((S)-2-amino-3-phenylpropanamido)-3-hydroxy-3-methylbutanamido)methyl)benzoyl)-L-isoleucyl-L-prolyl-L-threonyl-L-isoleucine] (H-F[dVal(3-OH)][4Amb]IPTI-OH)	-0.24	weak signal	35	–
CC[C@H](C)[C@H](NC(=O)[C@@H](NC(=O)[C@@H]1CCCN1C(=O)[C@H](CC(C)(C)C)NC(=O)[C@@H](CCC(=O)O)NC(=O)[C@@H](NC(=O)[C@@H](N)Cc1ccccc1)C(C)(C)O)[C@@H](C)O)C(=O)O [compound 016, (R)-4-((S)-2-((S)-2-amino-3-phenylpropanamido)-3-hydroxy-3-methylbutanamido)-5-(((S)-1-((S)-2-(((2S,3R)-1-(((1S,2S)-1-carboxy-2-methylbutyl)amino)-3-hydroxy-1-oxobutan-2-yl)carbamoyl)pyrrolidin-1-yl)-4,4-dimethyl-1-oxopentan-2-yl)amino)-5-oxopentanoic acid] (H-F[Val(3-OH)][dE][tBuAla]PTI-OH)	-0.3	0.18	48	–

Continued, in another order:

logD [1]	Aggregation at 1mM [3]	inhibition at 0.25 µM [4] [%]	Molecule	other results
-0.3	weak signal	40	C=C(C)C[C@H](NC(=O)c1ccc(CNC(=O)CC(O)CN)cc1)C(=O)N1[C@H](C(=O)NCC(O)CC(=O)N[C@@H](CC(C)(C)C)C(=O)O)C[C@@H]2CCCC[C@@H]21 (stereo partly drawn) [compound 104, (2S)-2-(4-((2S,3aS,7aS)-1-((2S)-2-(4-((4-amino-3-hydroxybutanamido)methyl)benzamido)-4-methylpent-4-enoyl)octahydro-1H-indole-2-carboxamido)-3-hydroxybutanamido)-4,4-dimethylpentanoic acid.]	half-time uptake t1/2 [2]: 8.56 ± 0.48 min
-0.07	0.17	73	C=C(C)C[C@H]1NC(=O)[C@](C)(NC(=O)[C@@H](CCC(=O)O)NC(=O)[C@H](N)[C@H](C)O)CCC/C=C\CCC[C@](C)(C(=O)N[C@H](C(=O)O)[C@@H](C)CC)NC(=O)[C@H]([C@@H](C)O)NC(=O)C2CCCN2C1=O (stereo partly drawn) [compound 052, (4R)-4-((2R,3S)-2-amino-3-hydroxybutanamido)-5-(((3S,6R,15R,18R,Z)-6-(((1S,2S)-1-carboxy-2-methylbutyl)carbamoyl)-3-((R)-1-hydroxyethyl)-6,15-dimethyl-18-(2-methylallyl)-1,4,16,19-tetraoxo-2,3,4,5,6,7,8,9,12,13,14,15,16,17,18,19,21,22,23,23a-icosahydro-1H-pyrrolo[1,2-d][1,4,7,10]tetraazacyclohenicosin-15-yl)amino)-5-oxopentanoic acid] (H-[dT][dE][R5][X4][ξP]T[R5]I-OH; staple (Z) 3-7)	–
0.2	weak signal	–	C=C(C)C[C@H](NC(=O)c1ccc(CNC(=O)CC(O)CNC(=O)[C@H](N)Cc2ccccc2)cc1)C(=O)N1[C@H](C(=O)NCC(O)CC(=O)N[C@@H](CC(C)(C)C)C(=O)O)C[C@@H]2CCCC[C@@H]21 (stereo partly drawn) [compound 102, (2S)-2-(4-((2S,3aS,7aS)-1-((2S)-2-(4-((4-((R)-2-amino-3-phenylpropanamido)-3-hydroxybutanamido)methyl)benzamido)-4-methylpent-4-enoyl)octahydro-1H-indole-2-carboxamido)-3-hydroxybutanamido)-4,4-dimethylpentanoic acid.]	Competitive Binding at 250nM (% Inhibition) [4]: no inhibition
-0.37	weak signal	70	C=C(C)C[C@H](NC(=O)CC(O)CNC(=O)[C@@H]1C[C@@H]2CCCC[C@@H]2N1C(=O)[C@H](CC(=C)C)NC(=O)c1ccc(CNC(=O)[C@H](NC(=O)[C@H](N)Cc2ccccc2)C(C)(C)O)cc1)C(=O)O (stereo partly drawn) [compound 105, (2S)-2-(4-((2S,3aS,7aS)-1-((S)-2-(4-(((R)-2-((R)-2-amino-3-phenylpropanamido)-3-hydroxy-3-methylbutanamido)methyl)benzamido)-4-methylpent-4-enoyl)octahydro-1H-indole-2-carboxamido)-3-hydroxybutanamido)-4-methylpent-4-enoic acid.] (H-[dF][dVal(3-OH)][4Amb][Leu(4,5-dehydro)][Oic][X1][Leu(4,5-dehydro)]-OH)	–
